Test results as given in ChEMBL document CHEMBL4610106, “Identification of the Clinical Development Candidate MRTX849, a Covalent KRASG12C Inhibitor for the Treatment of Cancer” (J Med Chem, 2020).
Converted amounts (≈) assume the structure as drawn.

What was measured:
[1] = Drug metabolism in mouse hepatocytes assessed as peak area for metabolite formed due to biotransformation (dealkylation; glucuronide; GSH) at 10 uM incubated for 2 hrs by LC-MS analysis; format: ADME, cell-based, Hepatocyte
[2] = Drug metabolism in mouse hepatocytes assessed as peak area for metabolite formed due to biotransformation (glucuronide; GSH) at 10 uM incubated for 2 hrs by LC-MS analysis; format: ADME, cell-based, Hepatocyte
[3] = Drug metabolism in mouse hepatocytes assessed as peak area for metabolite formed due to biotransformation (sulfate) at 10 uM incubated for 2 hrs by LC-MS analysis; format: ADME, cell-based, Hepatocyte
[4] = Drug metabolism in mouse hepatocytes assessed as peak area for metabolite formed due to biotransformation (dealkylation; GSH) at 10 uM incubated for 2 hrs by LC-MS analysis; format: ADME, cell-based, Hepatocyte
[5] = Drug metabolism in mouse hepatocytes assessed as peak area for metabolite formed due to biotransformation ( GSH) at 10 uM incubated for 2 hrs by LC-MS analysis; format: ADME, cell-based, Hepatocyte
[6] = Drug metabolism in mouse hepatocytes assessed as peak area for metabolite formed due to biotransformation (dealkylation; glucuronide) at 10 uM incubated for 2 hrs by LC-MS analysis; format: ADME, cell-based, Hepatocyte
[7] = Drug metabolism in mouse hepatocytes assessed as peak area for metabolite formed due to biotransformation (glucuronide) at 10 uM incubated for 2 hrs by LC-MS analysis; format: ADME, cell-based, Hepatocyte
[8] = Clearance in CD1 mouse at 3 mg/kg, iv; format: ADME, organism-based; conditions: in vivo
[9] = Half life in CD1 mouse at 3 mg/kg, iv; format: ADME, organism-based; conditions: in vivo
[10] = Volume of distribution at steady state in CD1 mouse at 3 mg/kg, iv; format: ADME, organism-based; conditions: in vivo, read-out: Vdss
[11] = Protein binding in mouse plasma; format: ADME, cell-free; conditions: read-out: PPB (converted)
[12] = Solubility in FaSSIF at pH 6.5; format: physicochemical
[13] = Apparent permeability in pig LLC-PK1 cells; format: ADME, cell-based, Sus scrofa; conditions: read-out: permeability
[14] = Cmax in CD1 mouse at 30 mg/kg, po; format: ADME, organism-based; set-up: dose 30 mg/kg, route oral; conditions: in vivo
[15] = Tmax in CD1 mouse at 30 mg/kg, po; format: ADME, organism-based; conditions: in vivo
[16] = AUC (infinity) in CD1 mouse at 30 mg/kg, po; format: ADME, organism-based; set-up: dose 30 mg/kg, time infinity, route oral; conditions: in vivo
[17] = AUC (infinity) in beagle dog at 30 mg/kg, po; format: ADME, organism-based, Canis lupus familiaris; set-up: dose 30 mg/kg, route oral, time infinity; conditions: in vivo
[18] = Tmax in beagle dog at 30 mg/kg, po; format: ADME, organism-based, Canis lupus familiaris; conditions: in vivo
[19] = Cmax in beagle dog at 30 mg/kg, po; format: ADME, organism-based, Canis lupus familiaris; set-up: dose 30 mg/kg, route oral; conditions: in vivo
[20] = Half life in beagle dog at 3 mg/kg, iv; format: ADME, organism-based, Canis lupus familiaris; conditions: in vivo
[21] = Clearance in beagle dog at 3 mg/kg, iv; format: ADME, organism-based, Canis lupus familiaris; conditions: in vivo
[22] = Volume of distribution at steady state in beagle dog at 3 mg/kg, iv; format: ADME, organism-based, Canis lupus familiaris; conditions: in vivo, read-out: Vdss
[23] = Half life in mouse whole blood at 5 uM by LC-MS/MS analysis; format: ADME, tissue-based
[24] = Half life in dog whole blood at 5 uM by LC-MS/MS analysis; format: ADME, tissue-based, Canis lupus familiaris
[25] = Half life in human whole blood at 5 uM by LC-MS/MS analysis; format: ADME, tissue-based
[26] = Protein binding in human plasma; format: ADME, cell-free; conditions: read-out: PPB (converted)
[27] = Half life in rat at 3 mg/kg, iv; format: ADME, organism-based; conditions: in vivo
[28] = Volume of distribution at steady state in rat at 3 mg/kg, iv; format: ADME, organism-based; conditions: in vivo
[29] = Cmax in rat at 30 mg/kg, po; format: ADME, organism-based; set-up: dose 30 mg/kg, route oral; conditions: in vivo
[30] = Tmax in rat at 30 mg/kg, po; format: ADME, organism-based; conditions: in vivo
[31] = AUC (infinity) in rat at 30 mg/kg, po; format: ADME, organism-based; set-up: dose 30 mg/kg, time infinity, route oral; conditions: in vivo
[32] = Toxicity in athymic nude-Foxn1nu mouse xenografted with human MIAPaCa2 cells assessed as induction of body weight loss at 10 to 100 mg/kg, po dosed daily via gavage for 16 days; format: organism-based, MIA PaCa-2; conditions: in vivo, 384 h
MIA PaCa-2 = assay: Antitumor activity against human MIAPaCa2 cells xenografted in athymic nude-Foxn1nu mouse assessed as maximally efficacious dose for induction of tumor regression at 10 to 100 mg/kg, po dosed daily via gavage for 16 days; format: functional
in vivo [33] = conditions: beagle, dog, po, 30 mg/kg
in vivo [34] = conditions: rat, po, 30 mg/kg

Compound: C=C(F)C(=O)N1CCN(c2nc(OC[C@@H]3CCCN3C)nc3c2CCN(c2cccc4cccc(Cl)c24)C3)C[C@@H]1CC#N [ADAGRASIB]
- Drug metabolism [1]: Metabolite_Notdetected
- Drug metabolism [2]: Metabolite_Notdetected
- Drug metabolism [3]: Metabolite_Notdetected
- Drug metabolism [4]: Metabolite_Notdetected
- Drug metabolism [5]: Metabolite_Notdetected
- Drug metabolism [6]: Metabolite_Notdetected
- Drug metabolism [7]: Metabolite_Notdetected
- clearance [8]: 19.9 mL/min/kg
- half-life [9]: 1.51 h
- Vd [10]: 2.02 L/kg
- fraction unbound [11]: 0.01
- solubility [12]: 568 µg/mL (≈ 940 µM)
- Papp [13]: 4.7 ×10⁻⁶ cm/s
- Cmax [14]: 2410 ng/mL
- Tmax [15]: 1 h
- AUC(0-inf) [16]: 15900 ng·h/mL
- AUC(0-inf) [17]: 4470 ng·h/mL
- Tmax [18]: 4 h
- Cmax [19]: 252 ng/mL
- half-life [20]: 7.56 h
- clearance [21]: 29.6 mL/min/kg
- Vd [22]: 17.4 L/kg
- half-life at 5 µM [23]: > 50 h
- half-life at 5 µM [24]: > 50 h
- half-life at 5 µM [25]: > 50 h
- fraction unbound [26]: 0.017
- t1/2 [27]: 2.57 h
- Vdss [28]: 20.7 L/kg
- Cmax [29]: 209 ng/mL
- Tmax [30]: 2.67 h
- AUC(0-inf) [31]: 2670 ng·h/mL
- Activity [32]: Non-Toxic
- Activity (MIA PaCa-2): 30 to 100 mg/kg
- bioavailability (in vivo [33]): 25.9%
- bioavailability (in vivo [34]): 29.7%
